Data reported in patent publication US11638716B2, “Compounds, compositions, and methods for the treatment of disease” (F-star Therapeutics, Inc., priority 2017, dated 2023).

How the values were obtained:
[1] = tested on: STING KO cells; assay: IRF and NF-kB reporter activity in STING KO cells; type: cell-based; settings: 20 hours
Protocol: (§1) FIG. 21 depicts cells stably expressing both or either one of the reporters to measure IRF and NF-kB activity were treated with a range of concentrations of compound 1 or DMSO control for 20 hours. IRF activity was assessed using QUANTI-luc to measure levels of Lucia and NF-kB activity was determined by measure SEAP levels at 620-655 nm. % induction was calculated from fold change in luminescence/absorbance compared to DMSO treated sample. EC50 values are generated by curve fit in Xlfit.
as §1, with “22” for “21”, “2” for “1”
as §1, with “24” for “21”, “3” for “1”
as §1, with “27” for “21”, “4” for “1”
(§2) Cells grown in complete media were treated with various concentrations of a compound of the disclosure or DMSO control. Dual cells carry both secreted embryonic alkaline phosphatase (SEAP) reporter gene under the control of an IFN-β minimal promoter fused to five copies of the NF-kB consensus transcriptional response element to measure NF-kB activity and Lucia reporter gene under the control of an ISG54 minimal promoter to measure IRF activity. After 20 h incubation, IRF activity was assessed using QUANTI-luc to measure levels of Lucia and NF-kB activity was determined by measure SEAP levels at 620-655 nm. % induction was calculated from fold change in luminescence/absorbance compared to DMSO treated sample. EC50 values are generated by curve fit in Xlfit.

[2] = tested on: peripheral blood mononuclear cells (PBMCs); assay: IFNb and TNFa secretion by freshly isolated PBMCs (ELISA); type: cell-based, human; settings: 20 hours
Protocol: (§3) FIG. 25 depicts freshly isolated peripheral blood mononuclear cells (PBMCs) treated with a range of concentrations of compound 3 or DMSO control for 20 hours. Supernatants were collected to measure IFNb and TNFa secretion by Verikine-Human IFN beta Serum ELISA kit and Human TNF Alpha ELISA kit respectively. The amount of cytokine releases into supernatant was calculated by a standard curve. Compound 3 induces IFNβ and TNFα secretion in PBMCs after treatment.
as §3, with “29” for “25”, “PBMCs that were” for “peripheral blood mononuclear cells (PBMCs)”, “4” for “3”

[3] = tested on: NF-κβ; assay: In vitro induction of NF-κβ in THP1 dual cells (SEAP reporter); type: cell-based
Protocol: Example 2. In Vitro Induction of IRF and NF-κβ in THP1 Cells
THP1 dual cells grown in complete media were treated with various concentrations of a compound of the present disclosure or DMSO control. Dual cells carry both secreted embryonic alkaline phosphatase (SEAP) reporter gene under the control of an IFN-β minimal promoter fused to five copies of the NF-kB consensus transcriptional response element to measure NF-kB activity and Lucia reporter gene under the control of an ISG54 minimal promoter to measure IRF activity. After 20 h incubation, IRF activity was assessed using QUANTI-luc to measure levels of Lucia and NF-kB activity was determined by measure SEAP levels at 620-655 nm. % induction was calculated from fold change in luminescence/absorbance compared to DMSO treated sample. […] EC50 values were generated by curve fit in Xlfit.
as §2

EC50 ([3]; Homo sapiens, THP-1, 20 h incubation) [nM] | Structure (SMILES) | IRF activity in STING KO cells [1] | NF-κβ in STING KO cells [1] | IFNβ secretion [2] | TNFα secretion [2] | EC50 ([3]; 20 h incubation) [nM]
 | CCCCCCCCCCOc1ccc(C(=O)Oc2ccc(CSP3(=O)OC[C@H]4O[C@@H](n5cnc6c(N)ncnc65)[C@H](F)[C@@H]4OP(=O)(O)OC[C@H]4O[C@@H](n5ccc(=O)[nH]c5=O)[C@H](O3)[C@@H]4F)cc2)cc1 (stereo partly shown) [Compound 4] | did not induce | did not induce | induces | induces | < 50
> 2000 | N.N.Nc1ncnc2c1ncn2[C@@H]1O[C@@H]2COP(=O)(S)O[C@@H]3[C@H](F)[C@@H](COP(=O)(O)O[C@H]2[C@H]1F)O[C@H]3n1ccc(=O)[nH]c1=O (stereo partly shown) [Compound 3] | did not induce | did not induce | induces | induces | 
